Measured values taken from US10822315B2, “5-benzylidene-4-oxazolidinones” (NORTH CAROLINA STATE UNIVERSITY, priority 2016, dated 2020).
pIC50: −log10 of the molar value. Values after ≈ are worked out from the molar mass of the structure shown.

Legend:
MRSA ATCC BAA-44 = experiment: Biofilm dispersion assay (crystal violet, pre-formed biofilm); type: cell-based, Staphylococcus aureus; settings: for % dispersion of pre-formed biofilm: 40 μM; for pIC50: MRSA ATCC BAA-44; for % dispersion of pre-formed biofilm at 5 µM: MRSA ATCC BAA 44
Protocol: (§1) General Information. Methicillin-resistant Staphylococcus aureus (MRSA) strains were obtained from the Laboratory of Professor Christian Melander (NCSU) ATCC (33591, BAA 44, BAA 1685, BAA 1770, BAA 43 300) and colonies were grown on solid media as instructed. Mueller-Hinton broth (MHB, 211443-BD), tryptic soy broth (TSB, Remel: R455052) and D-glucose (CAS: 492-62-6) were purchased from Fisher Scientific. Tryptic soy agar (TSA, cat. #22091) and Linezolid (cat. # P70014) were purchased from Sigma-Aldrich. Bacteria for biofilm inhibition and dispersion assays were cultured overnight in TSBG (tryptic soy broth with 0.5% glucose supplement). All assays were run in duplicate and repeated at least two separate times for MIC assays and at least four separate times for biofilm inhibition and dispersion assays. All compounds were dissolved molecular biology grade DMSO as 100 mM stock solutions and further diluted to 10 and 1 mM stock solutions as needed. Optical densities were measured using a Thermo Scientific Genesys 20 spectrophotometer. Data for biofilm inhibition and dispersion assays was collected using a BioTek ELx808 Microplate Reader. All graphs were generated and analyzed using GraphPad Prism 7.
(§2) Biofilm Dispersion Assay. Studies were performed using the standard method described in J. J. Richards, T. E. Ballard and C. Melander, Org Biomol Chem, 2008, 6, 1356-1363. Briefly, dispersion assays were performed by taking an overnight culture of bacterial strain and subculturing it at an OD600 of 0.01 into the necessary growth liquid medium. The resulting bacterial suspension was aliquoted (100 μL) into the wells of a 96-well PVC microtiter plate. Plates were then wrapped in GLAD Press n' Seal followed by an incubation under stationary conditions at an ambient temperature. After 24 hours, the media was discarded from the wells and the plates were washed thoroughly with tap water. Predetermined concentrations of the test compound were then made in the same medium used to initially grow the biofilms and then aliquoted (100 μL) into the wells of the 96-well PVC microtiter plate with the established biofilms. Plates were then wrapped in GLAD Press n'Seal and incubated under stationary conditions at 37° C. After 24 hours, the media was discarded from the wells and the plates were washed thoroughly with tap water. Plates were then stained with 100 μL of 0.1% solution of crystal violet (CV) and then incubated at room temperature for 30 minutes. Plates were then washed with tap water again and the remaining stain was solubilized with 200 μL of 95% ethanol. Biofilm dispersion was quantitated by measuring the OD540 for each well by transferring 125 μL of the solubilized CV stain into a polystyrene microtiter dish for analysis. Biofilm inhibition was quantified by measuring the OD540 of each well and calculated as a percentage of the control (no compound), a negative control lane wherein no biofilm was formed served as a background and was subtracted out.
(§3) Percent dispersion was then plotted against concentration in Prism 7. Each of the four experiments were plotted separately and analyzed by a normalized nonlinear regression. The IC50 values reported represent an arithmetic mean of the four IC50 values. Biofilm data represent four separate experiments, with each experiment performed in duplicate (average of 8 data points for each concentration tested, unless otherwise noted)

MRSA ATCC 33591 = experiment: Broth microdilution MIC determination; type: cell-based; settings: Staphylococcus aureus, Table 1, read-out: Antimicrobial Activity MIC
Protocol: as §1
(§4) Broth microdilution protocol for minimum inhibition concentration (MIC) determination. Studies were performed using the standard method prescribed by the Clinical and Laboratory Standards Institute (CLSI) M07-A8, Vol. 29 (2), which is hereby incorporated herein by reference. Briefly, fresh Mueller-Hinton broth (MHB) ˜3 ml, was inoculated (5×10^5 CFU mL^−1) with MRSA (ATCC 33591) methicillin-resistant Staphylococcus aureus. The resulting bacterial suspension was aliquoted (1 mL) into culture tubes and test compound (10 mM DMSO stock solution) was added to reach the final concentration of the interest. Bacteria not treated with the antimicrobial compound served as the control. Rows 2-12 of a 96-well microtiter plate were filled with remaining bacterial subcultures. The samples containing test compound were aliquoted (200 μL) into the first row wells of the microtiter plate (2 wells per compound). Row 1 wells were mixed 6-8 times and 100 μL was transferred down to row 2. Row 2 wells were mixed 6-8 times, followed by a 100 μL transfer from row 2 down to row 3. The rest of the rows of the plate were serially diluted in similar fashion. The plate was covered with sealing tape for 96-well plates (ThermoFisher) and incubated under stationary conditions at 37° C. A duplicate of the plate was prepared.

MRSA Strain 1685 [1] = experiment: Broth microdilution MIC determination; type: cell-based; settings: Staphylococcus aureus
Protocol: as §1, §4

MRSA Strain 1770 [2] = experiment: Broth microdilution MIC determination; type: cell-based; settings: Staphylococcus aureus
Protocol: as §1, §4

MRSA Strain 43300 [3] = experiment: Broth microdilution MIC determination; type: cell-based; settings: Staphylococcus aureus
Protocol: as §1, §4

MRSA Strain 1685 [4] = experiment: Biofilm dispersion assay (crystal violet); type: cell-based, Staphylococcus aureus
Protocol: as §1, §2, §3

MRSA Strain 1770 [5] = experiment: Biofilm dispersion assay (crystal violet); type: cell-based, Staphylococcus aureus
Protocol: as §1, §2, §3

MRSA Strain 43300 [6] = experiment: Biofilm dispersion assay (crystal violet); type: cell-based, Staphylococcus aureus; settings: for % Biofilm Dispersion (5/40 μM): MRSA strain 43300
Protocol: as §1, §2, §3

planktonic bacteria = experiment: Growth curve analysis; type: cell-based

| Compound | % dispersion of pre-formed biofilm (MRSA ATCC BAA-44) | pIC50 (MRSA ATCC BAA-44) | % dispersion of pre-formed biofilm at 5 µM (MRSA ATCC BAA-44; Staphylococcus aureus) | pIC50 (MRSA ATCC BAA-44; Staphylococcus aureus) | MIC (MRSA ATCC 33591) | MIC (MRSA Strain 1685 [1]) | MIC (MRSA Strain 1770 [2]) | MIC (MRSA Strain 43300 [3]) | % Biofilm Dispersion (5/40 μM) (MRSA Strain 1685 [4]; 5 μM) | % Biofilm Dispersion (5/40 μM) (MRSA Strain 1685 [4]; 40 μM) | % Biofilm Dispersion (5/40 μM) (MRSA Strain 1770 [5]; 5 μM) | % Biofilm Dispersion (5/40 μM) (MRSA Strain 1770 [5]; 40 μM) | % Biofilm Dispersion (5/40 μM) (MRSA Strain 43300 [6]; 5 μM) | % Biofilm Dispersion (5/40 μM) (MRSA Strain 43300 [6]; 40 μM) | growth curve versus untreated control (in words) (planktonic bacteria; 1 μM) | growth curve versus untreated control (in words) (planktonic bacteria; 5 μM) | biofilm dispersion activity (in words) (MRSA Strain 43300 [6]; MRSA strain 43 300) |
| --- | --- | --- | --- | --- | --- | --- | --- | --- | --- | --- | --- | --- | --- | --- | --- | --- | --- |
| CCCCC(Cl)(Cl)C1NC(=O)/C(=C/c2ccc(C(F)(F)F)cc2)O1 (centres unmarked) [Compound 1, (Z)-2-(1,1-dichloropentyl)-5-(4-(trifluoromethyl)benzylidene)oxazolidin-4-one] | 87% | 5.24 | 59% | 5.33 | 12 µg/mL (≈ 31.4 µM) | 16 µg/mL (≈ 41.9 µM) | 16 µg/mL (≈ 41.9 µM) | 8 µg/mL (≈ 20.9 µM) | 24% | 61% | 52% | 46% | 23% | 63% | substantial inhibition of growth in the first 8 hours | substantial inhibition of growth in the first 8 hours | – |
| O=C1NC(C(Cl)(Cl)Cc2ccccc2)O/C1=C\c1ccc(C(F)(F)F)cc1 (centres unmarked) [Compound 2, (Z)-2-(1,1-dichloro-2-phenylethyl)-5-(4-(trifluoromethyl)benzylidene)oxazolidin-4-one] | 69% | – | 57% | 5.37 | 6 µg/mL (≈ 14.4 µM) | 8 µg/mL (≈ 19.2 µM) | 8 µg/mL (≈ 19.2 µM) | 8 µg/mL (≈ 19.2 µM) | 15/− % | – | 29/− % | – | 37/− % | – | modest deviation from the untreated control | moderate growth inhibition in the first 8 hours | no dose-dependent dispersion activity |
